# Laboratory results taken from patent publication US20230339890A1, “AMINO ALCOHOL COMPOUNDS AND USES THEREOF” (Kineta, Inc., priority 2020, published 2023).
# Tested on: TDP-43-expressing yeast
# Experiment: Yeast TDP-43 model viability (resazurin-reduction endpoint)
# Assay type: cell-based
# Settings: 2-fold serial dilution applied for 24 hours
# Experimental: (§1) (FIG. 1A) Structure of the Erg11 inhibitor and anti-fungal, fluconazole. […] A 2-fold serial dilution of fluconazole was applied to TDP-43-expressing yeast for 24 hours prior to analysis. (FIG. 1C) Wild-type yeast cultures were treated with fluconazole for eight hours prior to HPLC analysis for lanosterol and ergosterol. Data are expressed as the area under the curve (AUC) normalized to cell mass based on optical density of cultures at 600 nm.
# The toxic gain of function features of TDP-43 can be faithfully recapitulated in the simple model organism, budding yeast, where the protein also localizes to stress granules. […] The yeast model thus provides a robust cell-based screening platform for small molecules capable of ameliorating toxicity. To validate compounds from such phenotypic screens, it is imperative to test compounds in a mammalian neuronal context. In an effort to develop TDP-43-related mammalian models of neuron loss that occurs in ALS and FTD, primary cultures of rat cortical neurons were transfected with human wild type or Q331K mutant TDP-43. These cells were compared to cells which received an empty expression vector control. […] In the experiments described in this example, this model system is used to interrogate new therapeutic approaches to ameliorate TDP-43 toxicity.
# Fluconazole is an antifungal known to inhibit Erg11, the yeast lanosterol 14-alpha demethylase (FIG. 1B). […]
row,Compound,viability of TDP-43-expressing yeast
1,OC(Cn1cncn1)(Cn1cncn1)c1ccc(F)cc1F [fluconazole],rescues viability

# Same assay, conditions: 2-fold serial dilution applied for 24 hours, listed as Fluconazole
row,Compound,viability of TDP-43-expressing yeast
1,OC(Cn1cncn1)(Cn1cncn1)c1ccc(F)cc1F [fluconazole],restored viability

# Biological target: Recombinant human CYP51A1 (lanosterol-14a-demethylase) (Homo sapiens (Human), UniProt Q16850)
# Experiment: Inhibition of CYP51A1, fluorescent substrate BOMCC
# Assay type: biochemical
# Settings: recombinant human CYP51A1 coexpressed with CYP reductase in bacterial membranes, 8-point concentration-response, read-out: CYP51 IC50
# Text: Method: Recombinant human CYP51A1 (lanosterol-14a-demethylase) enzyme was coexpressed with CYP reductase in bacterial membranes and the fluorescent substrate BOMCC (a nonnatural substrate that causes increases in fluorescence upon CYP51A1-dependent demethylation) was used to obtain 8-point dose concentration-response curves for each compound.
# Chain of Recombinant human CYP51A1 (lanosterol-14a-demethylase) (Q16850 whole entry): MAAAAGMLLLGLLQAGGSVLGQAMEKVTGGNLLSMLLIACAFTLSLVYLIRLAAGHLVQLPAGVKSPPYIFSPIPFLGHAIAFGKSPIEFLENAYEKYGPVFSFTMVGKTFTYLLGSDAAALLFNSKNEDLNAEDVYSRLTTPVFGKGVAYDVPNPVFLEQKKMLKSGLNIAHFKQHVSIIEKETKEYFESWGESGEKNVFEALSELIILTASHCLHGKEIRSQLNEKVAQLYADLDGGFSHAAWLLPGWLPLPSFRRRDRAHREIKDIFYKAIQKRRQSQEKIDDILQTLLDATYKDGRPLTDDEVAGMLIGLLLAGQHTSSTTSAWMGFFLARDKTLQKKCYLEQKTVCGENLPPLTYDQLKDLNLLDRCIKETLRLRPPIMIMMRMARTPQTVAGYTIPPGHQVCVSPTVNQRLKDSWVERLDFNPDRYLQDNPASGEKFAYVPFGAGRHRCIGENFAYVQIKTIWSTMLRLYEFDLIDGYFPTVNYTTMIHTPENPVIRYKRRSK
row,Compound,IC50 [nM]
1,"CCCN(C[C@H](O)c1cccnc1)C(=O)Cc1ccc(Cl)c(Cl)c1 [compound 6, 2-(3,4-dichlorophenyl)-N-[(2R)-2-hydroxy-2-(3-pyridyl)ethyl]-N-propyl-acetamide]",≤ 100
2,"CCCN(CC(O)c1cccnc1)C(=O)Cc1ccc2ccccc2c1 (stereo not drawn) [compound 2, N-[2-hydroxy-2-(3-pyridyl)ethyl]-2-(2-naphthyl)-N-propyl-acetamide]",≤ 100
3,"NCCCCCN(CC(O)c1cccnc1)C(=O)Cc1ccc(Cl)c(Cl)c1 (stereo not drawn) [compound 33, N-(5-aminopentyl)-2-(3,4-dichlorophenyl)-N-[2-hydroxy-2-(3-pyridyl)ethyl]acet amide]",> 1000
4,"CCCN(CC(O)c1cccnc1)C(=O)Cc1ccc(Cl)cc1F (stereo not drawn) [compound 31, 2-(4-chloro-2-fluoro-phenyl)-N-[2-hydroxy-2-(3-pyridyl)ethyl]-N-propyl-acetamide]",≤ 100
5,"CCCN(C[C@@H](O)c1cccnc1)C(=O)Cc1ccc(C#N)c(F)c1 [compound 119, 2-(4-cyano-3-fluoro-phenyl)-N-[(2S)-2-hydroxy-2-(3-pyridyl)ethyl]-N-propyl-acetamide]",≤ 100
6,"CCCN(CC(O)c1cccnc1)C(=O)Cc1ccc(Cl)c(C)n1 (stereo not drawn) [compound 63, 2-(5-chloro-6-methyl-2-pyridyl)-N-[2-hydroxy-2-(3-pyridyl)ethyl]-N-propyl-acetamide]",> 1000
7,"CCC(=O)N(C[C@@H](O)c1cccnc1)C1Cc2cc(Cl)c(Cl)cc2C1 [compound 22, N-(5,6-dichloroindan-2-yl)-N-[(2S)-2-hydroxy-2-(3-pyridyl)ethyl]propanamide]",100 to 1000
8,"CCCN(C[C@@H](O)c1cccnc1)C(=O)Cc1ccc(C(F)(F)F)cn1 [compound 106, N-[(2S)-2-hydroxy-2-(3-pyridyl)ethyl]-N-propyl-2-[5-(trifluoromethyl)-2-pyridyl]acetamide]",100 to 1000
9,"CCCN(CC(O)c1cccnc1)S(=O)(=O)Cc1ccc(Cl)c(Cl)c1 (stereo not drawn) [compound 10, 1-(3,4-dichlorophenyl)-N-[2-hydroxy-2-(3-pyridyl)ethyl]-N-propyl-methanesulfonamide]",> 1000
10,"CCCN(C[C@@H](O)c1cccnc1)C(=O)Cc1cncc(C(F)(F)F)c1 [compound 59, N-[(2S)-2-hydroxy-2-(3-pyridyl)ethyl]-N-propyl-2-[5-(trifluoromethyl)-3-pyridyl]acetamide]",> 1000
11,"CCCN(CC(O)c1cncc(Cl)c1)C(=O)Cc1ccc(Cl)c(Cl)c1 (stereo not drawn) [compound 37, N-[2-(5-chloro-3-pyridyl)-2-hydroxy-ethyl]-2-(3,4-dichlorophenyl)-N-propyl-acetamide]",> 1000
12,"CCCN(C[C@@H](O)c1cccnc1)C(=O)C1Cc2cc(C#N)c(C#N)cc2C1 [compound 133, 5,6-dicyano-N-[(2S)-2-hydroxy-2-(3-pyridyl)ethyl]-N-propyl-indane-2-carboxamide]",100 to 1000
13,"O=C(Cc1ccc(F)c(Cl)c1)N(CC1COC1)C[C@@H](O)c1cccnc1 [compound 65, 2-(3-chloro-4-fluoro-phenyl)-N-[(2S)-2-hydroxy-2-(3-pyridyl)ethyl]-N-(oxetan-3-ylmethyl)acetamide]",> 1000
14,CCCN(CC(O)c1cnccn1)C(=O)Cc1ccc(C(F)(F)F)nc1 (stereo not drawn) [compound 113],> 1000
15,CCCN(CC(O)c1cccnn1)C(=O)Cc1ccc(OC(F)(F)F)c(Cl)c1 (stereo not drawn) [compound 116],100 to 1000
16,"CC1(N(CC(O)c2cccnc2)C(=O)Cc2ccc(Cl)c(Cl)c2)CC1 (stereo not drawn) [compound 9, 2-(3,4-dichlorophenyl)-N-[2-hydroxy-2-(3-pyridyl)ethyl]-N-(1-methylcyclopropyl)a cetamide]",100 to 1000
17,"CCCN(CC(O)c1cccnn1)C(=O)Cc1ccc(C#N)c(Cl)c1 (single isomer, unassigned) [compound 54, 2-(3-chloro-4-cyanophenyl)-N-(2-hydroxy-2-pyridazin-3-yl-ethyl)-N-propyl-acetamide]",> 1000

# Tested on: Erg11
# Experiment: HPLC analysis of lanosterol and ergosterol in wild-type yeast cultures
# Assay type: cell-based
# Settings: wild-type yeast treated for eight hours
# Experimental: as §1
# Fluconazole is an antifungal known to inhibit Erg11, the yeast lanosterol 14-alpha demethylase (FIG. 1B). […] CYP51A1 has also been known as lanosterol 14-alpha demethylase, which describes its function in removing the 14-alpha-methyl group from lanosterol to generate 4,4-dimethylcholesta-8(9), 14, 24-trien-3β-ol, which is a critical step in the cholesterol biosynthetic pathway.
Compound,ergosterol (AUC normalized to cell mass),lanosterol (AUC normalized to cell mass)
OC(Cn1cncn1)(Cn1cncn1)c1ccc(F)cc1F [fluconazole],reduces ergosterol,"increase in the Erg11 substrate, lanosterol"
